# Results: patent US20210023113A1, “CONJUGATE OF CYTOTOXIC DRUG AND PRODRUG FORM OF SAID CONJUGATE” (priority 2018, published 2021)
# Legend:
# [1] = molecular target: T1, β-glucuronidase from Escherichia coli (Escherichia coli, UniProt P05804); test: Kinetics of β-glucuronidase-induced release of a cytotoxic drug (general procedure, plasma/phosphate buffer); assay type: biochemical; details: after 40 minutes of incubation with β-glucuronidase, 50/50 human plasma and potassium phosphate buffer pH 7.0, 25° C.
# Method: General Procedure for the Measurement of the Kinetics of β-glucuronidase-Induced Release of a Cytotoxic Drug • Sample solution of R isomers was prepared by adding 5 μL of compounds R6, R7 or R8 (10 mM in DMSO) to 500 μL of a 50/50 mixture of human plasma and potassium phosphate buffer (0.1M, pH 7.0) and incubating at 37° C. for 20 min. • Sample solution of S isomers was prepared by adding 5 μL of compounds S6, S7 or S8 (10 mM in DMSO) to 500 μL of a 50/50 mixture of human plasma and potassium phosphate buffer (0.1M, pH 7.0) and incubating at 37° C. for 20 min. • Quenching solution (Q) was prepared by adding 50 μL of 1 M aqueous HCl to 1.5 mL of acetonitrile. • β-glucuronidase solution (Glu) was prepared by adding 20 μL of aqueous glycerol solution of β-glucuronidase from Escherichia coli (6.5 mg/mL) to 180 μL of H2O. • Reference solution (Ref) was prepared by adding 5 μL of a corresponding free cytotoxic drug (10 mM in DMSO) to 500 μL of a 50/50 mixture of human plasma and potassium phosphate buffer (0.1M, pH 7.0) and incubating at 37° C. for 20 min.
# To each sample and reference solution was added 10 uL of Glu. The resulting mixtures were incubated at 25° C. 45 μL aliquots of each solution were quenched with 155 μL of Q at the precise time points indicated on the graphs (FIGS. 3-5). Quenched aliquots were centrifuged at 15000 g for 5 min and the supernatant was analyzed by LCMS (Method 3) with Selected ion recording set to [M+H]^+ where M corresponds to molecular mass of the free cytotoxic agent.
# The amount of released cytotoxic agent at each time point was calculated as (sample peak area)/(reference peak area)×100%.
# [2] = Stability of R5 and S5 in aqueous buffer (PBS); assay type: physicochemical; details: phosphate buffered saline pH 6.0, any time point
# Method: Measurement of the Stability of R5 and S5 in Aqueous Buffer at pH 7.4 • Sample solution R5-PBS was prepared by adding 20 μL of R5 (10 mM in DMSO) to 180 μL of phosphate buffered saline (pH 7.4). • Sample solution S5-PBS was prepared by adding 20 μL of S5 (10 mM in DMSO) to 180 μL of phosphate buffered saline (pH 7.4). • Samples were incubated at 25° C. and analyzed by LCMS (Method 3) with Selected ion recording set to 924 Da (corresponding to [R5+2H]^2+/2 and [S5+2H]^2+/2) and to 933 Da (the main impurity being formed corresponding to hydrolyzed products [R5+H2O+2H]^2+/2 and [S5+H2O+2H]^2+/2). Samples were injected at the following time points: 0 min, 99 min, 195 min, 291 min, 387 min, 543 min, 699 min, 855 min, 980 min. Peak areas of the samples injected at 0 min were considered as reference peak areas. • % Peak Area was calculated as (924 Da peak area)/((924 Da peak area)+(933 Da peak area))×100%.
# The same experiment was carried out in phosphate buffered saline at pH 6.0.
# serum albumin = molecular target: T2, serum albumin (Homo sapiens, UniProt P02768); test: Plasma-binding kinetics of R5 and S5; assay type: in vitro ADME; details: 37° C.
# T2 construct: adding 10 μL of R5 (10 mM in DMSO) to 990 μL of human plasma and incubating at 37° C; from tissue; host or cells: human plasma
# Method: Plasma-Binding Kinetics of R5 and S5 • Quenching solution (Q) was prepared by adding 50 μL of 1 M aqueous HCl to 1.5 mL of acetonitrile. • Sample solution R-Alb was prepared by adding 10 μL of R5 (10 mM in DMSO) to 990 μL of human plasma and incubating at 37° C. • Sample solution S-Alb was prepared by adding 10 μL of S5 (10 mM in DMSO) to 990 μL of human plasma and incubating at 37° C. • 45 μL aliquots of each sample solution were added to 155 μL of the quenching solution at the following time-points: 0 min, 1 min, 2 min, 3 min, 4 min, 5 min, 6 min, 7 min. • Quenched aliquots were centrifuged at 15000 g for 5 min and the supernatant was analyzed by LCMS (Method 3) with Selected ion recording set to 924 Da (corresponding to [R5+2H]^2+/2 and [S5+2H]^2+/2). Peak areas of the aliquots quenched at 0 min were considered as reference peak areas. • The % remaining free drug at each time point was calculated as (sample peak area)/(reference peak area)×100%.
# [3] = molecular target: T1, β-glucuronidase from Escherichia coli; test: Kinetics of β-glucuronidase-induced release of MMAE in human plasma; assay type: biochemical; details: after 7 minutes of incubation with β-glucuronidase, 37° C.
# Method: Measurement of the Kinetics of β-glucuronidase-Induced Release of MMAE • Sample solution of R isomer was prepared by adding 10 μL of R5 (10 mM in DMSO) to 990 μL of human plasma and incubating at 37° C. for 20 min. • Sample solution of S isomer was prepared by adding 10 μL of S5 (10 mM in DMSO) to 990 μL of human plasma and incubating at 37° C. for 20 min. • Quenching solution (Q) was prepared by adding 50 μL of 1 M aqueous HCl to 1.5 mL of acetonitrile. • β-glucuronidase solution (Glu) was prepared by adding 20 μL of aqueous glycerol solution of β-glucuronidase from Escherichia coli (6.5 mg/mL) to 180 μL of H2O. • Reference solution (Ref) was prepared by adding 10 μL of MMAE (10 mM in DMSO) to 990 μL of human plasma and incubating at 37° C. for 20 min.
# To 1 mL of each isomer and reference solution was added 40.9 uL of Glu. The resulting mixtures were incubated at 37° C. 45 μL aliquots of each solution were quenched with 155 μL of Q at the following time points: 1 min, 2 min, 3 min, 4 min, 5 min, 6 min and 7 min. Quenched aliquots were centrifuged at 15000 g for 5 min and the supernatant was analyzed by LCMS (Method 3) with Selected ion recording set to 719 Da (corresponding to [MMAE+H]^+). The amount of released MMAE at each time point was calculated as (sample peak area)/(reference peak area)×100% (FIG. 2).
# T1 sequence (P05804 whole entry): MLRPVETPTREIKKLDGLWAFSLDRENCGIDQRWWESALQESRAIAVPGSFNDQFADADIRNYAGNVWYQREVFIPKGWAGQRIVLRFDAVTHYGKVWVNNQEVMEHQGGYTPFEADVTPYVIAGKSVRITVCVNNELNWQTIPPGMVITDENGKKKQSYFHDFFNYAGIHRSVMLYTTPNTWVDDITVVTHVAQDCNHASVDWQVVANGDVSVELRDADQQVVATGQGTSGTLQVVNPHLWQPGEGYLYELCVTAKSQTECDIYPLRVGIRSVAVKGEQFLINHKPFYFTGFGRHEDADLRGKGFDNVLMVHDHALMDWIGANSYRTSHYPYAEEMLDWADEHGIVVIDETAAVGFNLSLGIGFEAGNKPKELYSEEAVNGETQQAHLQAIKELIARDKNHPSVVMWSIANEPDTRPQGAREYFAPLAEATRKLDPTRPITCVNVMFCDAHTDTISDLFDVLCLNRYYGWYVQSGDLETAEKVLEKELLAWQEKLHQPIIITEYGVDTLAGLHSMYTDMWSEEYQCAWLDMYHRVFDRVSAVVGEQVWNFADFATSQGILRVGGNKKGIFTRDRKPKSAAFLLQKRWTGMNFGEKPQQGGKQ
# T2 sequence (P02768 25-609): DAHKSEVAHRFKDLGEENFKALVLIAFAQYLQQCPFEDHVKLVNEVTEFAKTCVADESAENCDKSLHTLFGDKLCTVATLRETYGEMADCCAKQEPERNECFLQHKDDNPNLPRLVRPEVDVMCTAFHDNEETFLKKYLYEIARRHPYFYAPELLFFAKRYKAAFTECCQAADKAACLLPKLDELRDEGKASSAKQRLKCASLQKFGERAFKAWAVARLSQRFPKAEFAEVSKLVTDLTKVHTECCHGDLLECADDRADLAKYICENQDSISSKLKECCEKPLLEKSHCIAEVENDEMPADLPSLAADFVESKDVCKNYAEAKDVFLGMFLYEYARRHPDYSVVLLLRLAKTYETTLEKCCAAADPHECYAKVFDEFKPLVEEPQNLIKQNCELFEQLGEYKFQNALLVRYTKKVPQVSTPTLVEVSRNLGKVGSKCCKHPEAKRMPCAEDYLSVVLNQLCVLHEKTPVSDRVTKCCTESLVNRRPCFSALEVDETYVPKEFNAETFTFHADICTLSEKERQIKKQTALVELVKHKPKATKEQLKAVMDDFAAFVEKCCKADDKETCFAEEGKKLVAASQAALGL
structure (smiles),measurement,setting,value
CC[C@H](C)[C@@H]([C@@H](CC(=O)N1CCC[C@H]1[C@H](OC)[C@@H](C)C(=O)N[C@@H](Cc1ccccc1)C(=O)O)OC)N(C)C(=O)[C@@H](NC(=O)[C@H](C(C)C)N(C)C(=O)O[C@@H](Cc1cn(CCOCCOCCOCCOCCOCCOCCOCCOCCOCCOCCNC(=O)CCCCCN2C(=O)C=CC2=O)nn1)c1ccc(O[C@@H]2O[C@H](C(=O)O)[C@@H](O)[C@H](O)[C@H]2O)c([N+](=O)[O-])c1)C(C)C [S6],MMAF released from plasma-bound compound,[1],57%
CCc1c2c(nc3ccc(OCc4ccc(NC(=O)O[C@@H](Cc5cn(CCOCCOCCOCCOCCOCCOCCOCCOCCOCCOCCNC(=O)CCCCCN6C(=O)C=CC6=O)nn5)c5ccc(O[C@H]6O[C@@H](C(=O)O)[C@H](O)[C@@H](O)[C@@H]6O)c([N+](=O)[O-])c5)cc4)cc13)-c1cc3c(c(=O)n1C2)COC(=O)[C@]3(O)CC [S7],SN-38 released from plasma-bound compound,[1],18%
COc1cccc2c1C(=O)c1c(O)c3c(c(O)c1C2=O)C[C@@](O)(C(=O)CO)C[C@@H]3O[C@H]1C[C@H](NC(=O)O[C@@H](Cc2cn(CCOCCOCCOCCOCCOCCOCCOCCOCCOCCOCCNC(=O)CCCCCN3C(=O)C=CC3=O)nn2)c2ccc(O[C@H]3O[C@@H](C(=O)O)[C@H](O)[C@@H](O)[C@@H]3O)c([N+](=O)[O-])c2)[C@H](O)[C@H](C)O1 [S8],Doxorubicin released from plasma-bound compound,[1],80%
CC[C@H](C)[C@@H]([C@@H](CC(=O)N1CCC[C@H]1[C@H](OC)[C@@H](C)C(=O)N[C@H](C)[C@@H](O)c1ccccc1)OC)N(C)C(=O)[C@@H](NC(=O)[C@H](C(C)C)N(C)C(=O)O[C@@H](Cc1cn(CCOCCOCCOCCOCCOCCOCCOCCOCCOCCOCCNC(=O)CCCCCN2C(=O)C=CC2=O)nn1)c1ccc(O[C@@H]2O[C@H](C(=O)O)[C@@H](O)[C@H](O)[C@H]2O)c([N+](=O)[O-])c1)C(C)C [S5],degradation of compound,[2],No degradation
same,compound bound to serum albumin,serum albumin; after 2 minutes of incubation,about 90%
same,conversion (binding to serum albumin),serum albumin; after 4 minutes,total conversion
same,MMAE released from plasma-bound compound,[3],12%
